# From patent US20090227619A1, “Harmine derivatives, intermediates used in their preparations, preparation processes and use therefo” (priority 2003, published 2009)
# Where two headings read alike, the source gives them in different places.
# What was measured:
# S180 sarcoma = details: S180 sarcoma; for Body weight of the animals, beginning, First time / Body weight of the animals, end, First time / Inhibition rate, First time / Weight of the tumor X ± SD, First time: ip × 10qd; for Inhibition rate (%) S180 sarcomata: comparison table 43, in vivo
# Text: (§6) There was one group of 8 to 10 mice C57BL/6 and Kunming mice for the anti-tumor tests and two groups of mice for negative control.
# (§7) (3) Sources of tumors: Lewis lung cancer cells and S180 sarcoma in mice, which were sub-cultured and maintained by Pharmacological Center of Shanghai Pharmaceutical Industrial Research Institute.
# (§8) All samples were weighed and added a small amount of Tween-80 to facilitate dissolution during the experiment, and then 0.5% CMC-Na solution was gradually added to achieve the desired concentration. The volume for experiment was 0.5 ml/20 g mouse.
# (§9) The medicaments were intraperitoneally administered once a day continuously for 10 days.
# (§10) For the negative control group, a vehicle of the same volume was intraperitoneally administered once a day continuously for 10 days. For the positive control group, CTX was administered in the dosage of 30 mg/kg once a day continuously for 7 days.
# (§11) In vivo anti-tumor subcutaneous vaccination in the axilla was employed. Wildly grown tumor source was taken under sterile conditions to form a cell suspension of about 1×10^7 ml by homogenization method. For a corresponding mouse host, the suspension was injected in the axilla in an amount of 0.2 ml/mouse. The next day, the medicaments were administered according to the design of the tests. About three weeks later, all the groups of animals were executed. The tumors were taken from the animals and weighed. The inhibition rate of tumors was calculated according to the following formula:
# (§12) T: average tumor weight of treated group; C: average tumor weight of negative control group.
# HepG2 = assay: In vitro cytotoxicity, IC50 by MTT method, HepG2; assay type: cell-based, human; details: Homo sapiens
# Procedure: (§1) Culture medium powder RPMI1640 was dissolved in a proper amount of tri-distilled water according to the instruction of the product. […] It was the basic culture solution. The complete culture solution was added with FBS having a final concentration of 10%, 100 U/ml penicillin and 100 µg/ml streptomycin. The solution was fully stirred by a magnetic blender, and the pH of the solution was adjusted to 6.8-7.0. The volume was kept constant. After being filtered and disinfected, the solution was kept into several containers which were sealed and stored at 4° C.
# (§2) The cells were placed in a culture dish followed by the addition of complete culture liquid RPMI1640 and then cultured in a incubator comprising 5% CO2 at 37° C. In the exponential growth phase, the cells grew vigorously. If the culture liquid became yellow, the liquid should be replaced instantly.
# (§3) The cells, at a concentration of 10^5/ml, were inoculated at a 96-pore culture plate. In each pore, 100 μl cells were inoculated. The cells were placed in a CO2 incubator until the cells were in the logarithmic growth phase. The samples to be tested were added according to the preset concentration gradient. For each gradient, the test was conducted at least three times. An equivalent amount of solvent for dissolving the samples was added in the control group. After 48 h of culture, each pore was added 20 μl MTT (5 mg/ml). The cells were cultured at 37° C. for 4 h. After the supernatant was carefully removed, 100 μl DMSO was added in each pore. The plate was agitated for about 10 minutes such that the precipitates were dissolved. After that, OD value was identified with a Microplate Reader at the wavelength of 490 nm. The survival rate of the cells at various concentrations was calculated according to the following formula:
# (§4) Survival rate %=average OD value of the sample group/average OD value of the control group×100%
# (§5) Plots of log survival rate of the cells vs. concentration of the medicament were constructed, and the IC50 value of each sample was calculated according to graphing methods.
# Lovo = assay: In vitro cytotoxicity, IC50 by MTT method, Lovo; assay type: cell-based; details: Homo sapiens
# Procedure: as §1, §2, §3, §4, §5
# Hela = assay: In vitro cytotoxicity, IC50 by MTT method, Hela; assay type: cell-based; details: Homo sapiens
# Procedure: as §1, §2, §3, §4, §5
# PLA-801 = assay: In vitro cytotoxicity, IC50 by MTT method, PLA-801; assay type: cell-based
# Procedure: as §1, §2, §3, §4, §5
# Bel-7402 = assay: In vitro cytotoxicity, IC50 by MTT method, Bel-7402; assay type: cell-based; details: Homo sapiens, Bel-7402
# Procedure: as §1, §2, §3, §4, §5
# NIH3T3 = assay: In vitro cytotoxicity, IC50 by MTT method, NIH3T3; assay type: cell-based; details: Mus musculus
# Procedure: as §1, §2, §3, §4, §5
# BGC-823 = assay: In vitro cytotoxicity, IC50 by MTT method, BGC-823; assay type: cell-based; details: Homo sapiens, BGC-823
# Procedure: as §1, §2, §3, §4, §5
# Lewis lung cancer = details: for Body weight of the animals, end, First time / Body weight of the animals, beginning, First time / Inhibition rate, First time / Weight of the tumor X ± SD, First time / Inhibition rate (%) Lewis cancer: Lewis lung cancer; for Body weight of the animals, end, First time: ip × 10qd; for Inhibition rate (%) Lewis cancer: comparison table 43, in vivo;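 on all read-outs here: mice implanted subcutaneously in the axilla with Lewis lung tumor cells, treated starting the following day, killed roughly three weeks after implantation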
# Text: as §6, §7, §8, §9, §10, §11, §12
Compound,"Body weight of the animals, beginning, First time (S180 sarcoma; Dosage 50 (mg/ml)) [g]","Body weight of the animals, end, First time (S180 sarcoma; Dosage 50 (mg/ml)) [g]","Inhibition rate, First time (S180 sarcoma; Dosage 50 (mg/ml)) [%]","Weight of the tumor X ± SD, First time (S180 sarcoma; Dosage 50 (mg/ml)) [g]","Body weight of the animals, beginning, First time (S180 sarcoma; Dosage 100 (mg/ml)) [g]","Body weight of the animals, end, First time (S180 sarcoma; Dosage 100 (mg/ml)) [g]","Inhibition rate, First time (S180 sarcoma; Dosage 100 (mg/ml)) [%]","Weight of the tumor X ± SD, First time (S180 sarcoma; Dosage 100 (mg/ml)) [g]",Inhibition rate (%) S180 sarcomata (S180 sarcoma) [%],"Body weight of the animals, end, First time (Lewis lung cancer; Dosage 50 (mg/ml)) [g]","Body weight of the animals, beginning, First time (Lewis lung cancer; Dosage 50, ip × 10qd) [g]","Inhibition rate, First time (Lewis lung cancer; Dosage 50, ip × 10qd) [%]","Weight of the tumor X ± SD, First time (Lewis lung cancer; Dosage 50, ip × 10qd) [g]","Body weight of the animals, end, First time (Lewis lung cancer; Dosage 100 (mg/ml)) [g]","Body weight of the animals, beginning, First time (Lewis lung cancer; Dosage 100, ip × 10qd) [g]","Inhibition rate, First time (Lewis lung cancer; Dosage 100, ip × 10qd) [%]","Weight of the tumor X ± SD, First time (Lewis lung cancer; Dosage 100, ip × 10qd) [g]",Inhibition rate (%) Lewis cancer (Lewis lung cancer) [%],further results
"CCOC(=O)c1cc2c3ccccc3n(CC)c2cn1 [Compound 31, ethyl 9-ethyl-β-carboline-3-carboxylate]",19.7,26.7,28.04,1.88 ± 0.21,20.0,26.1,37.02,1.65 ± 0.16,36.21,24.3,20.6,30.04,1.70 ± 0.12,23.7,20.5,36.21,1.55 ± 0.22,37.02,"IC50 (HepG2; HepG2 cell strain, read-out: IC50 HepG2): 110 µM; IC50 (Lovo; Lovo cell strain, read-out: IC50 Lovo): 70 µM; IC50 (Hela; Hela cell strain, read-out: IC50 Hela): 140 µM; IC50 (PLA-801; PLA-801 cell strain, read-out: IC50 PLA-801): 170 µM; IC50 (Bel-7402; Bel7402 cell strain, read-out: IC50 Bel7402): 260 µM; IC50 (NIH3T3; NIH3T3 cell strain, read-out: IC50 NIH3T3): 100 µM; IC50 (BGC-823; BGC823 cell strain, read-out: IC50 BGC823): 140 µM"
"CCOC(=O)c1cc2c(cn1)[nH]c1ccccc12 [Compound 10, ethyl β-carboline-3-carboxylate]",20.0,26.4,30.92,1.81 ± 0.20,20.1,25.5,40.46,1.56 ± 0.17,40.46,–,20.1,32.92,1.63 ± 0.16,23.6,20.3,41.98,1.41 ± 0.21,41.98,IC50 (HepG2; HepG2): 1250 µM; IC50 (Lovo; LoVo): 1010 µM; IC50 (Hela; HeLa): 60 µM; IC50 (PLA-801): 280 µM; IC50 (Bel-7402): 2910 µM; IC50 (NIH3T3; NIH3T3): 80 µM; IC50 (BGC-823): 1280 µM
"COC(=O)c1cc2c([nH]c3ccccc32)c(-c2ccc(OC)cc2)n1 [Compound 15, methyl 1-(4-methoxyphenyl)-β-carboline-3-carboxylate]",19.8,26.4,23.66,2.00 ± 0.16,19.9,26.0,35.50,1.69 ± 0.16,32.10,23.9,20.4,25.51,1.81 ± 0.28,24.0,20.3,32.10,1.65 ± 0.17,35.50,"IC50 (HepG2; HepG2, MTT, read-out: IC50): > 3000 µM; IC50 (Lovo; Lovo, MTT, read-out: IC50): > 3000 µM; IC50 (Hela; Hela, MTT, read-out: IC50): > 3000 µM; IC50 (PLA-801; PLA-801, MTT, read-out: IC50): > 3000 µM; IC50 (Bel-7402; BeI7402, MTT, read-out: IC50): > 3000 µM; IC50 (NIH3T3; NIH3T3, MTT, read-out: IC50): > 3000 µM; IC50 (BGC-823; BGC823, MTT, read-out: IC50): > 3000 µM; Anti-tumor activity compared with harmine (compound 1) (Lewis lung cancer; Lewis lung cancer in mice, among 22 compounds tested): a little worse than or equivalent to that of harmines"
